Measurements taken from ChEMBL document CHEMBL5584343, “Cerastecin Inhibition of the Lipooligosaccharide Transporter MsbA to Combat Acinetobacter baumannii: From Screening Impurity to In Vivo Efficacy” (J Med Chem, 2024).
Values after ≈ are worked out from the molar mass of the structure shown.

How the values were obtained:
[1] = system: Acinetobacter baumannii; test: Antibacterial activity against Acinetobacter baumannii ATCC19606 assessed as bacterial growth inhibition incubated for 18 to 20 hrs by microbroth dilution method; type: functional; settings: time 18-20 hrs
[2] = system: MT4; test: (§1) Cytotoxicity against GFP fused human MT4 cells cultured under serum free condition for 24 hrs by CellTiter-Glo assay; type: toxicity, cell-based; settings: mt4, 24 h, time 24 hrs
[3] = Inhibition of wildtype Acinetobacter baumannii MsbA preincubated for 30 mins followed by ATP addition and measured after 1 hrs by Transcreener ADP2 F1 assay
[4] = system: Acinetobacter baumannii; test: Antibacterial activity against Acinetobacter baumannii ATCC19606 incubated for 18 to 20 hrs in presence of 1% of human serum by microbroth dilution method; type: functional; settings: time 18-20 hrs
[5] = system: Acinetobacter baumannii; test: Selectivity ratio of MIC95 for antibacterial activity against Acinetobacter baumannii ATCC19606 in the presence of 1% human serum to MIC95 for antibacterial activity against Acinetobacter baumannii ATCC19606; type: functional
[6] = as §1; type: toxicity, cell-based; settings: GFP fused MT4 cells
[7] = Plasma protein binding in C57BL/6 mouse at 1000 to 100000 ng/ml by equilibrium dialysis based LC-MS/MS analysis; type: ADME, cell-free; settings: dose 1000-100000 ng/ml, read-out: PPB (converted)
[8] = system: Acinetobacter baumannii; test: Antibacterial activity against Acinetobacter baumannii CLB21655 infected in female DBA mouse blood stream infection model assessed as fold change in colony forming units in spleen at 100 mg/kg, sc pre-infected with bacteria for 0.5 hrs followed by once daily compound administration and measured after 8 hrs relative to control; type: functional
[9] = system: Acinetobacter baumannii; test: Antibacterial activity against Acinetobacter baumannii CLB21655 infected in female DBA mouse blood stream infection model assessed as fold change in colony forming units in spleen at 200 mg/kg, sc pre-infected with bacteria for 0.5 hrs followed by once daily compound administration and measured after 8 hrs relative to control; type: functional
[10] = system: Acinetobacter baumannii; test: Antibacterial activity against Acinetobacter baumannii CLB21655 infected in female DBA mouse blood stream infection model assessed as fold change in colony forming units in spleen at 300 mg/kg, sc pre-infected with bacteria for 0.5 hrs followed by once daily compound administration and measured after 8 hrs relative to control; type: functional
[11] = system: Acinetobacter baumannii; test: Antibacterial activity against Acinetobacter baumannii CLB21655 infected in female DBA mouse blood stream infection model assessed as fold change in colony forming units in spleen at 10 mg/kg, sc pre-infected with bacteria for 0.5 hrs followed by thrice daily compound administration and measured after 8 hrs relative to control; type: functional
[12] = system: Acinetobacter baumannii; test: Antibacterial activity against Acinetobacter baumannii CLB21655 infected in female DBA mouse lung infection model assessed as fold change in colony forming units in lung at 300 mg/kg, sc pre-infected with bacteria for 2 hrs followed by thrice daily compound administration with 3 hrs interval and measured after 24 hrs relative to control; type: functional
[13] = system: Acinetobacter baumannii; test: Antibacterial activity against Acinetobacter baumannii CLB21655 infected in female DBA mouse lung infection model assessed as fold change in colony forming units in lung at 300 mg/kg, sc pre-infected with bacteria for 2 hrs followed by once daily compound administration and measured after 24 hrs relative to control; type: functional
[14] = system: Acinetobacter baumannii; test: Antibacterial activity against Acinetobacter baumannii ATCC19606 incubated for 18 to 20 hrs in presence of 50% mouse serum by microbroth dilution method; type: functional; settings: time 18-20 hrs
[15] = system: Acinetobacter baumannii; test: Antibacterial activity against Acinetobacter baumannii CLB21655 infected in female DBA mouse blood stream infection model assessed as reduction in bacterial burden in spleen at 100 mg/kg, sc pre-infected with bacteria for 0.5 hrs followed by once daily compound administration and measured after 8 hrs (reference value: 6.5 log10CFU/g); type: functional
[16] = system: Acinetobacter baumannii; test: Antibacterial activity against Acinetobacter baumannii CLB21655 infected in female DBA mouse blood stream infection model assessed as reduction in bacterial burden in spleen at 200 mg/kg, sc pre-infected with bacteria for 0.5 hrs followed by once daily compound administration and measured after 8 hrs (reference value: 6.5 log10CFU/g); type: functional
[17] = system: Acinetobacter baumannii; test: Antibacterial activity against Acinetobacter baumannii CLB21655 infected in female DBA mouse blood stream infection model assessed as reduction in bacterial burden in spleen at 300 mg/kg, sc pre-infected with bacteria for 0.5 hrs followed by once daily compound administration and measured after 8 hrs (reference value: 6.5 log10CFU/g); type: functional
[18] = system: Acinetobacter baumannii; test: Antibacterial activity against Acinetobacter baumannii CLB21655 infected in female DBA mouse blood stream infection model assessed as reduction in bacterial burden in spleen at 300 mg/kg, sc pre-infected with bacteria for 0.5 hrs followed by thrice daily compound administration and measured after 8 hrs (reference value: 6.3 log10CFU/g); type: functional
[19] = system: Acinetobacter baumannii; test: Antibacterial activity against Acinetobacter baumannii CLB21655 infected in female DBA mouse lung infection model assessed as reduction in bacterial burden in lung at 300 mg/kg, sc pre-infected with bacteria for 2 hrs followed by thrice daily compound administration with 3 hrs interval and measured after 24 hrs (reference value: 9.7 log10CFU/g); type: functional
[20] = system: Acinetobacter baumannii; test: Antibacterial activity against Acinetobacter baumannii CLB21655 infected in female DBA mouse lung infection model assessed as reduction in bacterial burden in lung at 300 mg/kg, sc pre-infected with bacteria for 2 hrs followed by once daily compound administration and measured after 24 hrs (reference value: 9.7 log10CFU/g); type: functional
[21] = system: Acinetobacter baumannii; test: Antibacterial activity against wild type Acinetobacter baumannii; type: functional
[22] = system: Acinetobacter baumannii; test: Antibacterial activity against Acinetobacter baumannii clinic isolates; type: functional
[23] = system: Acinetobacter baumannii; test: Antibacterial activity against Acinetobacter baumannii ATCC 19606 assessed as bacterial growth inhibition incubated overnight by spectrophotometric analysis; type: functional
[24] = system: Acinetobacter baumannii; test: Antibacterial activity against Acinetobacter baumannii CLB21655 infected in female DBA mouse blood stream infection model assessed as reduction in bacterial burden in spleen at 10 mg/kg, sc pre-infected with bacteria for 0.5 hrs followed by once daily compound administration and measured after 8 hrs (reference value: 5.85 log10CFU/g); type: functional
[25] = system: Acinetobacter baumannii; test: Antibacterial activity against Acinetobacter baumannii CLB21655 infected in female DBA mouse blood stream infection model assessed as fold change in colony forming units in spleen at 10 mg/kg, sc pre-infected with bacteria for 0.5 hrs followed by once daily compound administration and measured after 8 hrs relative to control; type: functional
[26] = system: Acinetobacter baumannii; test: Antibacterial activity against Acinetobacter baumannii CLB21655 infected in female DBA mouse blood stream infection model assessed as reduction in bacterial burden in spleen at 10 mg/kg, sc pre-infected with bacteria for 0.5 hrs followed by thrice daily compound administration and measured after 8 hrs (reference value: 6.3 log10CFU/g); type: functional
[27] = system: Acinetobacter baumannii; test: Antibacterial activity against Acinetobacter baumannii CLB21655 infected in female DBA mouse lung infection model assessed as fold change in colony forming units in lung at 10 mg/kg, sc pre-infected with bacteria for 2 hrs followed by compound administration and measured after 24 hrs relative to control; type: functional
[28] = system: Acinetobacter baumannii; test: Antibacterial activity against Acinetobacter baumannii CLB21655 infected in female DBA mouse lung infection model assessed as reduction in bacterial burden in lung at 10 mg/kg, sc pre-infected with bacteria for 2 hrs followed by compound administration and measured after 24 hrs (reference value: 6.3 log10CFU/g); type: functional
[29] = system: Acinetobacter baumannii; test: Antibacterial activity against Acinetobacter baumannii CLB21655 infected in female DBA mouse lung infection model assessed as fold change in colony forming units in lung at 160 mg/kg, sc pre-infected with bacteria for 2 hrs followed by compound administration and measured after 24 hrs in presence of ceftazidime relative to control; type: functional
[30] = system: Acinetobacter baumannii; test: Antibacterial activity against Acinetobacter baumannii CLB21655 infected in female DBA mouse lung infection model assessed as reduction in bacterial burden in lung at 160 mg/kg, sc pre-infected with bacteria for 2 hrs followed by compound administration and measured after 24 hrs in presence of ceftazidime (reference value: 9.7 log10CFU/g); type: functional
[31] = system: Acinetobacter baumannii; test: Antibacterial activity against Acinetobacter baumannii CLB21655 infected in female DBA mouse blood stream infection model assessed as reduction in bacterial burden in spleen at 200 mg/kg, sc pre-infected with bacteria for 0.5 hrs followed by once daily compound administration and measured after 8 hrs (reference value: 5.85 log10CFU/g); type: functional
[32] = Lipophilicity, logD of compound at pH 7 by HPLC analysis; type: physicochemical; settings: buffer
[33] = system: Acinetobacter baumannii; test: Antibacterial activity against Acinetobacter baumannii CLB21655 infected in female DBA mouse lung infection model assessed as fold change in colony forming units in lung at 640 mg/kg, sc pre-infected with bacteria for 2 hrs followed by compound administration and measured after 24 hrs in presence of avibactam relative to control; type: functional
[34] = system: Acinetobacter baumannii; test: Antibacterial activity against Acinetobacter baumannii CLB21655 infected in female DBA mouse lung infection model assessed as reduction in bacterial burden in lung at 640 mg/kg, sc pre-infected with bacteria for 2 hrs followed by compound administration and measured after 24 hrs in presence of avibactam (reference value: 9.7 log10CFU/g); type: functional
[35] = system: Acinetobacter baumannii; test: Antibacterial activity against Acinetobacter baumannii ATCC19606 incubated for 18 to 20 hrs in presence of 10% human serum by microbroth dilution method; type: functional; settings: time 18-20 hrs
[36] = system: Acinetobacter baumannii; test: Selectivity ratio of MIC95 for antibacterial activity against Acinetobacter baumannii ATCC19606 in the presence of 10% human serum to MIC95 for antibacterial activity against Acinetobacter baumannii ATCC19606; type: functional
[37] = AUC (0 to infinity) in male C57BL/6 mouse at 300 mg/kg, sc measured after 24 hrs by LC-MS/MS analysis; type: ADME, organism-based; settings: in vivo
[38] = Cmax in male C57BL/6 mouse at 300 mg/kg, sc measured after 24 hrs by LC-MS/MS analysis; type: ADME, organism-based; settings: in vivo
[39] = Plasma protein binding in C57BL/6 mouse assessed as free fraction at 1000 to 100000 ng/ml by equilibrium dialysis based LC-MS/MS analysis; type: ADME, cell-free; settings: dose 1000-100000 ng/ml

Compound: O=C(CCCOc1ccc(NS(=O)(=O)CCc2ccc(F)cc2)c(C(=O)O)c1)Nc1ccc(NS(=O)(=O)CCc2ccc(F)cc2)c(C(=O)O)c1
- MIC95 [1]: 3.12 µM (≈ 2.33 µg/mL)
- Activity [2]: Non-Toxic
- EC50 [3]: 1140 nM
- MIC95 [4]: 25 µM
- Selectivity ratio [5]: 8

Compound: O=C(CCCOc1ccc(NS(=O)(=O)c2cnn(-c3ccc(F)cc3)c2)c(C(=O)O)c1)Nc1ccc(NS(=O)(=O)c2cnn(-c3ccc(F)cc3)c2)c(C(=O)O)c1
- MIC95 [1]: 0.277 µM (≈ 0.228 µg/mL)
- EC50 at 24 h [6]: > 42000 nM
- EC50 [3]: 50 nM
- MIC95 [4]: 2.03 µM
- fraction unbound [7]: 0.004
- Selectivity ratio [5]: 7.3
- fold change (FC) [8]: 0.63
- fold change (FC) [9]: 0
- fold change (FC) [10]: 0.36
- fold change (FC) [11]: 1.9
- fold change (FC) [12]: 1.4
- fold change (FC) [13]: 0.9
- MIC95 [14]: 50 µM
- Activity [15]: 5.9 log10CFU/g
- Activity [16]: 6.5 log10CFU/g
- Activity [17]: 6.2 log10CFU/g
- Activity [18]: 4.4 log10CFU/g
- Activity [19]: 8.3 log10CFU/g
- Activity [20]: 8.8 log10CFU/g

Compound: CN1C(=O)[C@H](CCCCN)NC(=O)[C@H](CCCN)NCc2cccnc2Sc2cccc(-c3ccc(C(=O)O)cc3)c2CNC(=O)[C@@H]1Cc1c[nH]c2ccccc12 [ZOSURABALPIN]
- MIC [21]: 0.3 µM (≈ 0.237 µg/mL)
- MIC [22]: 0.12 µg/mL (≈ 0.152 µM)

Compound: CCCCc1ccc(S(=O)(=O)Nc2ccc(NC(=O)N3CCOCC3)cc2C(=O)O)cc1
- MIC [23]: ≤ 12.5 µM

Compound: CN(C)c1cc(NC(=O)CNC(C)(C)C)c(O)c2c1C[C@H]1C[C@H]3[C@H](N(C)C)C(O)=C(C(N)=O)C(=O)[C@@]3(O)C(O)=C1C2=O [TIGECYCLINE]
- Activity [24]: 2.85 log10CFU/g
- fold change (FC) [25]: 3
- fold change (FC) [11]: 2.8
- Activity [26]: 3.5 log10CFU/g
- fold change (FC) [27]: 2.8
- Activity [28]: 3.5 log10CFU/g

Compound: NC(=O)[C@@H]1CC[C@@H]2CN1C(=O)N2OS(=O)(=O)O [AVIBACTAM]
- fold change (FC) [29]: 2.1
- Activity [30]: 7.6 log10CFU/g

Compound: CCCCc1ccc(S(=O)(=O)Nc2ccc(NC(=O)CCC(=O)Nc3ccc(NS(=O)(=O)c4ccc(CCCC)cc4)c(C(=O)O)c3)cc2C(=O)O)cc1
- MIC95 [1]: 0.057 µM (≈ 0.0444 µg/mL)
- EC50 at 24 h [6]: > 42000 nM
- EC50 [3]: 49 nM
- MIC95 [4]: 11.5 µM
- fraction unbound [7]: < 0.001
- Selectivity ratio [5]: 202
- Activity [31]: 6.04 log10CFU/g
- logD [32]: 2.1

Compound: CC(C)(O/N=C(\C(=O)N[C@@H]1C(=O)N2C(C(=O)[O-])=C(C[n+]3ccccc3)CS[C@H]12)c1csc(N)n1)C(=O)O [CEFTAZIDIME]
- fold change (FC) [33]: 2.1
- Activity [34]: 7.6 log10CFU/g

Compound: O=C(O)c1cc(CN2CC(Oc3ccc(NS(=O)(=O)c4ccc(-c5ccc(F)cc5)s4)c(C(=O)O)c3)C2)ccc1NS(=O)(=O)c1cnn(-c2ccc(F)cc2)c1
- MIC95 [1]: 0.024 µM (≈ 0.0197 µg/mL)
- EC50 at 24 h [6]: > 42000 nM
- EC50 [3]: 7.3 nM
- MIC95 [35]: 6.25 µM
- Selectivity ratio [36]: 260
- AUC [37]: 7970 µM·h
- Cmax [38]: 502 µM
- logD [32]: 1.8
- Fu [39]: 0.6%
